This note sets out measurements from US20100184815A1 (priority 2008, published 2010).

Series [1] deals with T1, Full Length hPPARα (Homo sapiens, UniProt Q07869).
T1 construct: Full Length; expressed in transfected cells; host or cells: Cos cells
T1 sequence (Q07869 1-468): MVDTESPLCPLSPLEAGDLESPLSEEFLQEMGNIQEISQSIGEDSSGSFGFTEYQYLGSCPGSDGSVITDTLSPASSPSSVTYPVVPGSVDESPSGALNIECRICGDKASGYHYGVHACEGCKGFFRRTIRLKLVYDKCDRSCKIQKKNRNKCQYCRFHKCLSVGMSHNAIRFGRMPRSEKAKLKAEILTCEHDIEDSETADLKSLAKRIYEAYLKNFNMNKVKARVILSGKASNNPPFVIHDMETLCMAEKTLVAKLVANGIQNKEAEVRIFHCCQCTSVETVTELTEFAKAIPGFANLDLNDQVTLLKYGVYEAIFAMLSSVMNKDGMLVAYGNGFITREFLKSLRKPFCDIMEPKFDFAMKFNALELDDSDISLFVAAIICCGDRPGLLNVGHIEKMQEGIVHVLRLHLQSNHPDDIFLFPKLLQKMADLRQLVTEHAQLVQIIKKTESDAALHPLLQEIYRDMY
The series can be described thus: Full length hPPARα transfection assay. The format is cell-based. The note with it: full length receptor; read-out: Full Length hPPAR α EC50 (scaled number). As to the method: Transient transfection assays. Cos cells were seeded in 60-mm dishes at a density of 5.5×10^5 cells/dish in Dulbecco's modified Eagle's medium (DMEM) supplemented with 10% fetal calf serum (FCS) and incubated at 37° C. for 24 hours before transfection. Cells were transfected in Opti-MEM (Gibco; Invitrogen, Carlsbad, Calif.) without FCS for 3 hours at 37° C., using polyethylenimine, with reporter and expression plasmids. The plasmid pBluescript (Stratagene, La Jolla, Calif.) was used as carrier DNA to set the final amount of DNA to 5.5 μg/dish. The pCMV-b-galactosidase expression plasmid was cotransfected as a control for transfection efficiency. Transfection was stopped by the addition of DMEM supplemented with 10% FCS, and cells were then incubated at 37° C. After 16 hours, cells were trypsinized and seeded in 96-well plates at the density of 2×10^4 cells/well and incubated for 6 hours in 10% FCS-containing DMEM. Cells were then incubated for 24 hours in DMEM containing 0.2% FCS and increasing concentrations of the compound tested or vehicle (DMSO). At the end of the experiment, cells were washed once with ice-cold PBS, lysed and the luciferase and b-galactosidase assays were performed in a luminometer and spectrophotomer. Transfection efficiencies were normalized with the b-galactosidase activity assay. Half-maximal effective concentration (EC50) was estimated using Prism software (GraphPad). All transfection experiments were performed at least three times.
In the following tables, proprietary compound EC50 values for hPPAR α, β, δ and γ are shown. The EC50 value is the concentration of a drug that induces a response halfway between the baseline and maximum, and is commonly used as a measure of drug potency. EC50 values are reported on a scale of 1 through 5, wherein the value scale is defined for each receptor as follows: […]

Series [2] concerns the target T2, Gal-4 hPPARα (Homo sapiens, UniProt Q07869).
T2 construct: Plasmids pGal4-hPPARα, pGal4-hPPARγ, pGal4-hPPARδ and pG5-TK-pGL3 were constructed as previously described by Staels, Bart, et al., Nature 1998 Jun; 25
T2 sequence (Q07869 200-468 limits assumed): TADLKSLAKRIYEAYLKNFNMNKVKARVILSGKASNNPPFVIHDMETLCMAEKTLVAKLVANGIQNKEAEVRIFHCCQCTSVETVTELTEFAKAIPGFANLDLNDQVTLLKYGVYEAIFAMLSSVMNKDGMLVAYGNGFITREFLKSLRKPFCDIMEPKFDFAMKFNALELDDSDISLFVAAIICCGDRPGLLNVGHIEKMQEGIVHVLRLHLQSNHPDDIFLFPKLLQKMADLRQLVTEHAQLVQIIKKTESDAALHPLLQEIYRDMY
As to the kind of experiment: Gal4-hPPARα transient transfection reporter assay in Cos cells. The format is cell-based. The note with it: luciferase reporter, 24 hours with compound, scale 1-5, read-out: Gal-4 hPPAR α EC50 (scaled number). The essentials:
(§1)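 Cos cells transiently co-transfected with Gal4-hPPAR expression plasmid, pG5-TK-pGL3 luciferase reporter and β-galactosidase control, then treated 24 h with increasing compound concentrations in DMEM containing 0.2% FCS. Luciferase normalised to β-galactosidase; EC50 from curve fit, at least three experiments.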

The target in series [3] is T3, Gal-4 hPPARγ (Homo sapiens, UniProt P37231).
T3 construct: Plasmids pGal4-hPPARα, pGal4-hPPARγ, pGal4-hPPARδ and pG5-TK-pGL3 were constructed as previously described by Staels, Bart, et al., Nature 1998 Jun; 25
T3 sequence (P37231 238-505 limits assumed): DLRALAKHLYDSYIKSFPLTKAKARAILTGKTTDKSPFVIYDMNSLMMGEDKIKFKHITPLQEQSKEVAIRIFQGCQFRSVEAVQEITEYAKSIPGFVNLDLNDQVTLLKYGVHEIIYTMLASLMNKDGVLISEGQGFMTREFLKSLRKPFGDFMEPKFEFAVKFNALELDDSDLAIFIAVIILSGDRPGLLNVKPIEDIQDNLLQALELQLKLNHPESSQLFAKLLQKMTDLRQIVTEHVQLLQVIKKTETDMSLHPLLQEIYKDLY
As to the kind of experiment: Gal4-hPPARγ transient transfection reporter assay in Cos cells. The format is cell-based. The note with it: luciferase reporter, 24 hours with compound, scale 1-5, read-out: Gal-4 hPPAR γ EC50 (scaled number). A digest of the protocol:
as §1
A general note: In a reporter assay the amount or activity of a reporter protein is the signal.

The target in series [4] is T4, Gal-4 hPPARβ/δ (Homo sapiens, UniProt Q03181).
T4 construct: Plasmids pGal4-hPPARα, pGal4-hPPARγ, pGal4-hPPARδ and pG5-TK-pGL3 were constructed as previously described by Staels, Bart, et al., Nature 1998 Jun; 25
T4 sequence (Q03181 171-441 limits assumed): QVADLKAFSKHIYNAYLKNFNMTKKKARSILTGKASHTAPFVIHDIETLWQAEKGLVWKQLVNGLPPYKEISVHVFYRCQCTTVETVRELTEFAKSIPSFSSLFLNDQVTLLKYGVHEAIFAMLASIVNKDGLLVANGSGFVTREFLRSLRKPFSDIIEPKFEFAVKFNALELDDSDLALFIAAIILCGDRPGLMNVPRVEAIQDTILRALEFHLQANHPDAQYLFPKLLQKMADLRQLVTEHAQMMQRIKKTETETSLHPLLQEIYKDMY
As to the kind of experiment: Gal4-hPPARδ transient transfection reporter assay in Cos cells. Format: cell-based. The settings on record: luciferase reporter, 24 hours with compound, scale 1-5, read-out: Gal-4 hPPAR β/δ EC50 (scaled number). A digest of the protocol: as §1

The subject of series [5] is pig liver esterase. As to the kind of experiment: Metabolism studies using pig liver esterase. The format is in vitro ADME. The settings on record: 37° C. The method, then:
The esterase-mediated metabolism of these compounds was studied using commercially available pig liver esterase in the presence and absence of human plasma proteins. The disappearance of parent was monitored over the time course of the incubations using a LC-UV detection system.
A stock solution and working stock solution was prepared for each proprietary compound as described for the human liver microsomal incubations. Working solutions of pig liver esterase in potassium phosphate buffer ([…], pH 7.4) and pig liver esterase in human plasma protein were prepared by dissolving pig liver esterase (2.51 mg) in the phosphate buffer or plasma protein solutions, respectively.
A set of three Eppendorf microfuge tubes (1.5 mL) was appropriately labeled. To each tube was added 1.5 mL of phosphate buffer, pig liver esterase in buffer, or pig liver esterase in human plasma protein solution. These solutions were pre-incubated (37° C., 900 rpm) and the reactions were initiated by adding an aliquot (37.5 μL) of the working solution of proprietary compound to each tube. An aliquot (100 μL) from each tube was removed at time 0, 5, 30, 60, and 120 min and added to a tube containing acetonitrile (200 μL) to stop the reaction.
The samples were centrifuged at 14000 g for 15 minutes at 4° C. The supernatant was transferred to clean labeled HPLC injection vials and stored at −80° C. until analyzed. An aliquot of the supernatant (25 μL) was injected onto the LC-UV system for analysis.
Half lives of a sample of test articles is noted in the following table. Half life was determined in the presence or absence of plasma.

Series [6] can be described thus: Metabolism studies using human liver microsomal preparations. The format is in vitro ADME. The note with it: pooled human liver microsomes, with NADPH (CYP system active), 37° C. The method, then:
Compounds were incubated in pooled human liver microsomes (HLMs) in the presence or absence of an NADPH-generating system. NADPH is required for the activity of cytochrome P450 (CYP) and other oxidative enzymes present in HLMs, but not for esterase activity. An additional incubation was carried out in the absence of HLM to assess compound stability. The disappearance of parent and the appearance of the corresponding acid metabolite were monitored over the time course of the incubations using LC-MS/MS.
A stock solution (20 mM) of each proprietary compound in DMSO was prepared and store at −20° C. until needed. A working stock solution (0.2 mM) was prepared for each proprietary compound by adding an aliquot of the stock solution (10 μL) to acetonitrile (990 μL).
An aliquot of the HLM solution was removed from the −80° C. freezer and placed on ice. Tris Buffer (50 mM, pH 7.4) containing MgCl2 (hexahydrate, 5 mM) was pre-incubated in a 37° C. water bath. A set of Eppendorf microfuge tubes (1.5 mL) was appropriately labeled. To each tube was added Tris buffer with or without the NADPH generating system. An aliquot of pooled HLMs was added to all the incubations except those that were the buffer control.
Tubes were preincubated for 5 min in a shaking incubator bath (37° C., 900 rpm) and the reaction was initiated by adding an aliquot of the proprietary working solution (5 μL). The additions were timed carefully in order to coordinate the sample collections below. A small aliquot (50 μL) was removed at […] and delivered to the respective tubes containing dextrorphan (100 μL of 0.5 μg/mL solution) in dissolved in methanol or acetonitrile. The samples were centrifuged at 14000 g for 15 minutes at 4° C. The supernatant was transferred to clean labeled HPLC injection vials and stored at −80° C. until analyzed. An aliquot of the supernatant […] was added to water (75 μL), mixed and injected onto the LC-MS/MS system for analysis.
“HLM t1/2” represents the observed half life of the compound under conditions that included NADPH, i.e., the CYP system was active. Comparison to the half life of the test article under (−)NADPH conditions, the enzyme predominant ly responsible for the metabolism of the test article. […] Where roughly equal metabolism is seen by each enzyme system, “mixed” is noted in the “Predominant enzyme” column.
(Microsomes from liver hold many membrane-bound enzymes, among them those of drug oxidation.)

Where [7] appears, read: pig liver esterase in human plasma protein solution, read-out: Pig Liver Esterase (t1/2 min.) (+) Plasma.
Setting [8] is: pig liver esterase in phosphate buffer pH 7.4, no plasma, read-out: Pig Liver Esterase (t1/2 min.) (−) Plasma.

Each structure is given as a SMILES string. pEC50: −log10 of the molar value. Like-named read-outs stand apart in the source and are kept apart here.

On to `Cn1nc(-c2ccccc2)cc1COC(=O)c1ccc(OC(C)(C)C(=O)O)cc1` [Compound 2, 2-methyl-2-(4-(((1-methyl-3-phenyl-1H-pyrazol-5-yl)methoxy)carbonyl)phenoxy)propanoic acid], for which the pEC50 in series [1] was 7.30 to 9.00; in series [2], 6.00 to 6.70; in series [3] it was less than 6.00; in series [4] it was less than 6.00.
With `Cc1ccc(Cn2nncc2COC(=O)c2ccc(SC(C)(C)C(=O)O)cc2)cc1` [Compound 62, 2-methyl-2-(4-(((1-(4-methylbenzyl)-1H-1,2,3-triazol-5-yl)methoxy)carbonyl)phenylthio)propanoic acid], the pEC50 in series [1] is 6.70 to 7.29; in series [2], 6.70 to 7.29; in series [3], less than 6.00; in series [4], less than 6.00.
On to `COc1ccc(Cn2cc(COC(=O)c3ccc(SC(C)(C)C(=O)O)cc3)nn2)cc1` [Compound 68, 2-(4-(((1-(4-methoxybenzyl)-1H-1,2,3-triazol-4-yl)methoxy)carbonyl)phenylthio)-2-methylpropanoic acid], for which the pEC50 in series [1] is 6.70 to 7.29; in series [2] it was 6.70 to 7.29; in series [3], less than 6.00; in series [4], less than 6.00.
As for `Cc1ccc(Cn2cc(C(C)OC(=O)c3ccc(SC(C)(C)C(=O)O)cc3)nn2)cc1` (centres unmarked) [Compound 81, 2-methyl-2-(4-((1-(1-(4-methylbenzyl)-1H-1,2,3-triazol-4-yl)ethoxy)carbonyl)phenylthio)propanoic acid], the pEC50 was greater than 9.00 in series [1], 7.30 to 9.00 in series [2], less than 6.00 in series [3] and less than 6.00 in series [4].
Take `CC(C)(Sc1ccc(C(=O)OCCn2cc(-c3ccc(C(C)(C)C)cc3)nn2)cc1)C(=O)O` [Compound 89, 2-(4-((2-(4-(4-tert-butylphenyl)-1H-1,2,3-triazol-1-yl)ethoxy)carbonyl)phenylthio)-2-methylpropanoic acid]: the pEC50 in series [1] is 7.30 to 9.00; in series [2], 6.70 to 7.29; in series [3] it was less than 6.00; in series [4], less than 6.00.
Take `CCCn1c([C@H](C)OC(=O)c2ccc(SC(C)(C)C(=O)O)cc2)nn(Cc2ccc(C)cc2)c1=O` [Compound 248, 4-(1-Carboxy-1-methyl-ethylsulfanyl)-benzoic acid (S)-1-[1-(4-methyl-benzyl)-5-oxo-4-propyl-4,5-dihydro-1H-1,2,4-triazol-3-yl]-ethyl ester]: the half-life at 4.9 µM in series [5] (setting [7]) and in series [5] (setting [8]) was greater than 2 h each time. The “HLMs t1/2 (min)” value in series [6] is reported as “Stable”. In addition, the pEC50 in series [2] is 6.70 to 7.29; in series [3] it was less than 6.00; in series [4] it was less than 6.00.
As to `CCCn1c([C@@H](C)OC(=O)c2ccc(SC(C)(C)C(=O)O)cc2)nn(Cc2ccc(C)cc2)c1=O` [Compound 249, 4-(1-Carboxy-1-methyl-ethylsulfanyl)-benzoic acid (R)-1-[1-(4-methyl-benzyl)-5-oxo-4-propyl-4,5-dihydro-1H-1,2,4-triazol-3-yl]-ethyl ester], the half-life at 4.9 µM in series [5] (setting [7]) and in series [5] (setting [8]) was greater than 2 h each time. For the same molecule, the “HLMs t1/2 (min)” value in series [6] is “Stable”. The pEC50 is 7.30 to 9.00 in series [2], less than 6.00 in series [3] and less than 6.00 in series [4].
